Tested on: post-menopausal women
Assay: Example 3: menopause-specific Quality of Life (MENQOL) questionnaire
Assay type: in vivo, human

C[C@]12CC[C@@H]3c4ccc(O)cc4CC[C@H]3[C@@H]1[C@@H](O)[C@@H](O)[C@@H]2O.O [E4 monoh.]
MENQOL Anxious or Nervous, Estimate vs Placebo (15 mg): −0.6100
MENQOL Being Impatient with Others, Estimate vs Placebo (15 mg): −0.4911
MENQOL Difficulty sleeping, Estimate vs Placebo (15 mg): −0.7011
MENQOL Dissatisfied Personal Life, Estimate vs Placebo (15 mg): −0.8163
MENQOL Physical Domain, Aching in muscles, Estimate vs Placebo (15 mg): −0.1858
MENQOL Psychosocial Domain Score, Estimate vs Placebo (15 mg): −0.5211
Total MENQOL Score, Estimate vs Placebo (15 mg): −0.7068
MENQOL Anxious or Nervous, Estimate vs Placebo (20 mg): −0.8197
MENQOL Being Impatient with Others, Estimate vs Placebo (20 mg): −0.5656
MENQOL Difficulty sleeping, Estimate vs Placebo (20 mg): −0.7258
MENQOL Dissatisfied Personal Life, Estimate vs Placebo (20 mg): −1.2719
MENQOL Physical Domain, Aching in muscles, Estimate vs Placebo (20 mg): −0.5576
MENQOL Psychosocial Domain Score, Estimate vs Placebo (20 mg): −0.6056
Total MENQOL Score, Estimate vs Placebo (20 mg): −0.7155

— patent publication US20260207623A1, “USE OF ESTETROL IN HEPATICALLY IMPAIRED PATIENTS” (ESTETRA SRL, priority 2022, published 2026)
